The values below come from patent US6117975A, “Melanocortin receptor polypeptides MC-3, MC-4, and MC-5” (The Regents of the University of Michigan, priority 1996, dated 2000).

Experiment [1] relates to chimeric receptor cH2R/MC3R-3i. The experiment is described as follows: [3H] IP production in Hepa cells transfected with chimeric cH2R/hMC3R-3i. In kind it is cell-based. The conditions noted are these: chimeric cH2R/MC3R-3i, Hepa cells. The source says:
(§1) Chimeric Receptor. […] The chimeric receptor (cH2R/MC3R-3i) was constructed by cassette mutation at the junction of the fifth and sixth transmembrane domains of cH2R. Six PCR primers were used to generate three DNA fragments which were subsequently ligated together. The three PCR-generated fragments consisted of 1) the 5' coding region of the cH2R receptor beginning just prior to the ATG codon and ending with the 3' end of the fifth transmembrane domain; 2) the portion of the MC3 receptor gene encoding its third intracytoplasmic loop; and 3) the 3' coding region of the cH2R beginning with that segment encoding the 5' end of the sixth transmembrane domain and ending slightly past the termination codon. The DNA fragments were cut with appropriate restriction enzymes at pre-engineered restriction sites designed so that the three fragments could be assembled together in only the correct alignment. Restriction sites were also designed to facilitate subcloning the chimeric receptor DNA into CMVneo and the sequencing vector M13. The nucleotide sequence of the CMVneo cH2R/MC3R-3i construct was confirmed prior to expression in Hepa cells.
(§2) Inositol Phosphate (IP) Assays.

For experiment [2], the target named is T1, wild-type H2-histamine receptor (cH2R) (Canis lupus familiaris, UniProt P17124). As to conditions: Hepa cells.
Excerpt: as §1, §2

The target of experiment [3] is T1, wild-type H2-histamine receptor (cH2R). As to conditions: Hepa cells.
Excerpt: as §1
(§3) cAMP Assays. A cAMP assay kit purchased from Amersham (TRK 432, Arlington Heights, Ill.) was employed. Transfected cells were grown to confluence in 12-well (2.4×1.7 cm) tissue culture plates. […]
This is another data set of the same source.

The test system of experiment [4] is chimeric receptor cH2R/MC3R-3i. The conditions noted are these: chimeric cH2R/MC3R-3i, Hepa cells.
Excerpt: as §1, §3

T1 sequence (P17124 whole entry): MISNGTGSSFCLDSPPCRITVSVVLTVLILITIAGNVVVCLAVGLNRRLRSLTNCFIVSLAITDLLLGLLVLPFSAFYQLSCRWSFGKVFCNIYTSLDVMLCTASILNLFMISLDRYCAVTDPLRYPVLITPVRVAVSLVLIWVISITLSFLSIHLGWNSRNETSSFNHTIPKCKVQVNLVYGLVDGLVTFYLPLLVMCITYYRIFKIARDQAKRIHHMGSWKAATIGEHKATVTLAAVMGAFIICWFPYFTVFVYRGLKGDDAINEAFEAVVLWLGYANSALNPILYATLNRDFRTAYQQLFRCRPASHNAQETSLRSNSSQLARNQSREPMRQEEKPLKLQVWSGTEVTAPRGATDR

`NCCc1c[nH]cn1` [histamine]: the “[3H]-IP production dose-response (in words)” value was “biphasic dose-response curve for [^3 H]-IP production” in experiment [1]; “monophasic dose-dependent increases in both cAMP and [^3 H]-IP production” in experiment [2]. The “cAMP dose-response (in words)” value in experiment [3] is “monophasic dose-dependent increases in both cAMP and [^3 H]-IP production”; in experiment [4], “monophasic cAMP dose-response curve”.
